Drawing on the pKa sets of Baltruschat and Czodrowski (2020), this text covers pKa for 140 compounds.

In the case of `C[C@H](N)[C@H](O)c1ccc(O)cc1`, the pKa – broadly, the negative logarithm of the acid dissociation constant – (basic group) is 8.69.
The same measure, in the same setting: as for `CCNCc1ccc(C)cc1`, the figure is 10; as for `O=[N+]([O-])c1cccc2[nH]ncc12`, 0.42.
`CC/C(C)=C/C(=O)O` came in with a pKa (acidic group) of 5.14.
For `CCC(C)N(C)C` (stereo not given), the pKa (basic group) worked out at 10.4.
For `Cc1cccc(/N=C/N(C)C)c1`, for the setting “basic group”, the pKa came out at 9.11.
`Nc1ccc(-c2ccc([NH3+])cc2)cc1` yielded a pKa (basic group) of 3.66.
On to `COc1cc(C#N)cc(C(=O)N[C@@H]2C[C@H]3CC[C@@H](C2)N3Cc2ccccc2)c1OC`, for which the pKa (basic group) was 8.7.
Consider `O=C1CNC(=O)[C@H](Cc2ccc(O)cc2)N1`, for which, under “acidic group”, the pKa was found to be 9.47.
The compound `CSc1cc2ccccc2cn1` displayed a pKa (basic group) of 3.41.
For the compound `Cc1cc(C)n(-c2cc(C)n(C)[nH+]2)n1`, the pKa (basic group) was -2.9.
As to `O=C(O)CP`, the pKa (acidic group) is 4.07.
`Nc1ncnc2scnc12` showed a pKa (basic group) of 2.77.
Regarding `CC1/C(=N/O)C[C@@H]2N=C(c3ccccc3)O[C@@]13[C@@H]1OC(=O)[C@H](C)[C@H]1CC[C@]23C` (stereo not given in full), the pKa (basic group) came out at 4.7.
Under “basic group”, `N[C@H]1CONC1=O` came in with a pKa of 7.53.
For the compound `CC(=O)c1ccc(Br)cc1`, the pKa (acidic group) came out at 18.
Compound `NC(Cc1cccnc1)C(=O)[O-]` (stereo not given) gave a pKa (basic group) of 9.26.
On the same count and under the same terms, then `CC(C)(N)C(N)=S`, with 7.61; and `Nc1cc([N+](=O)[O-])cc2ccccc12`, with 2.24.
For `CC(=O)[n+]1ccc(N(C)C)cc1`, the pKa (acidic group) is 9.55.
The compound `CCCCCCCP(=O)(CCCCCCC)CCCCCCC` registered a pKa (basic group) of 4.65.
As for `COCCCCNc1ccccc1`, the pKa (basic group) turned out to be 4.6.
As to `Cc1cc(C(=O)O)ccc1[N+](=O)[O-]`, the pKa (acidic group) was found to be 3.65.
On the same count and under the same terms, as for `CCC#CC#CC#CC(=O)O`, the figure is 1.67; as for `CCCS`, 10.6.
Consider `Cc1cc2ncn([C@H]3OC[C@H](O)[C@H](O)[C@@H]3O)c2cc1C`, for which the pKa (basic group) turned out to be 4.7.
As for `CC(=O)NC(CS)C(=O)[O-]` (stereo not given), for the setting “acidic group”, the pKa came out at 9.62.
As to `O=CC1c2ccccc2-c2ccccc21`, the pKa runs as follows: (acidic group) 7.4; (basic group) 6.2.
Where the note is “basic group”, `NCC(=O)NCCc1c[nH]cn1` registered a pKa of 8.04.
In the case of `Nc1c([O-])cccc1O`, the pKa (acidic group) was determined as 11.6.
Still for that read-out and setting: then `CC(=O)c1ccc(C(=O)O)s1`, with 3.
The same measure, in the same setting: as for `O=S(=O)([O-])c1cc(O)cc2[nH]ncc12`, the figure is 8.85.
In turn, `N/C(Cc1ccccc1)=N\O` came in with a pKa (basic group) of 5.32.
For the compound `CC[NH+](CC)Cc1cccc(F)c1O`, the pKa (acidic group) was 7.26.
Same read-out and setting: as for `C[NH+](C)CCCCCCCNC(=O)/C=N/O`, the figure is 8.98; as for `[NH3+][C@@H](Cc1ccccc1)C(=O)O`, 2.21.
In the case of `[NH3+]CCC(=O)N[C@@H](Cc1c[nH]cn1)C(=O)[O-]`, the pKa (basic group) stood at 6.89.
In the case of `CC(C)C1NC(=S)NC1=O` (stereo not given), the pKa (acidic group) amounted to 8.7.
Regarding `O=C(CCN1CCCCC1)c1ccccc1`, the pKa (basic group) came out at 9.23.
As for `N#CC(C#N)=NNc1cccc(O)c1`, the pKa (acidic group) stood at 6.45.
With `COc1ccc(O)cc1C`, for the setting “acidic group”, the pKa stood at 10.2.
As to `Cc1nc(C)c(C)nc1C`, the pKa (basic group) was determined as 3.36.
`CC(=O)N1CSC[C@H]1C(=O)O` yielded a pKa (acidic group) of 2.94.
For the compound `CN(C)N(C)C`, under “basic group”, the pKa stood at 6.19.
In the case of `Fc1cccc(NC(=S)c2ccc(Cl)cc2)c1`, the pKa (acidic group) turned out to be 10.2.
On to `O=S(=O)([O-])c1c(O)ccc2cn[nH]c12`, for which the pKa (acidic group) was 9.45.
Turning to `O=[N+]([O-])c1cc[n+](O)cc1`, the pKa (acidic group) was -1.7.
As for `COc1cccnc1C=O`, the pKa (basic group) was 3.89.
Still for that read-out and setting: as for `N[C@H]1CCC[C@@H]1O`, the figure is 9.28.
In turn, `Cc1cccc([Se](=O)O)c1` yielded a pKa (acidic group) of 4.8.
Where the note is “basic group”, `CCN1CCCC1` showed a pKa of 11.
As for `CC(=O)c1c(C(=O)O)cccc1[N+](=O)[O-]`, where the note is “acidic group”, the pKa came out at 3.26.
As to `Cn1ncc2ccccc21`, the pKa (basic group) was 0.51.
With `COc1cccc(C(=O)NC2CC3CCC(C2)N3Cc2ccccc2)c1OC` (stereo not given), the pKa (basic group) came to 8.91.
In turn, `Cc1ccc(N(C)CO)cc1` showed a pKa (basic group) of 3.73.
Take `Cc1cc(C(N)=O)cc(C)[n+]1O`: the pKa (acidic group) is 2.08.
Turning to `CCc1ccc(/N=N/c2ccc(N(C)C)cc2)cc1CC`, for the setting “basic group”, the pKa turned out to be 2.58.
Take `NCCC[n+]1ccc2ccccc2c1`: under “basic group”, the pKa worked out at 8.97.
Compound `CC[NH2+]CCCC(=O)O` registered a pKa (acidic group) of 3.92.
Still for that read-out and setting: as for `CCc1cc2c(C)cc(=O)oc2cc1O`, the figure is 8.01; as for `O=c1cc[nH]cc1`, 11.1.
On the same count and under the same terms, as for `O=C(O)c1cc(=O)cc(-c2ccccc2)o1`, the figure is 1.51.
On to `CNC(=O)c1ccccc1O`, for which the pKa (acidic group) worked out at 8.03.
In the case of `CCOC(=O)c1cc(-c2ccccc2)nnc1NCCN1CCOCC1`, where the note is “basic group”, the pKa came to 6.67.
In turn, `CNCCN(C)CCN` came in with a pKa (basic group) of 10.2.
Consider `COC(=O)CC(C)=O`, for which the pKa (acidic group) was 10.6.
For the compound `O=C(O)c1cccc[nH+]1`, the pKa by setting is: (acidic group) 1.25; (basic group) -0.84.
For the setting “basic group”, `COC(=O)c1cc(Br)c(=O)n(N)c1` displayed a pKa of 2.4.
`CCCCCCC(=O)NO` had a pKa (acidic group) of 9.62.
As for `CCCN(CCO)CC(C)O` (stereo not given), the pKa (basic group) amounted to 8.9.
`O=[N+]([O-])c1ccc(O)c(C[NH+]2CCOCCOCCOCCOCCOCC2)c1`: where the note is “acidic group”, the pKa was 5.77.
On the same count and under the same terms, then `Cc1ccc([N+](C)(C)C)cc1O`, with 8.2.
Turning to `Cc1noc(C)c1C`, the pKa (basic group) was -1.
With `O=c1ccccc(O)c1`, the pKa (acidic group) amounted to 5.4.
In turn, `[O-]c1cc(O)cc[nH+]1` yielded a pKa (acidic group) of 6.5.
As for `Nc1cccc2nc3ccccc3c(N)c12`, for the setting “basic group”, the pKa turned out to be 11.
Compound `[O-]c1c(O)cccc1O` displayed a pKa (acidic group) of 11.2.
The compound `CN(C)c1ccc(NC(=O)/C=N/O)cc1` returned a pKa (acidic group) of 9.26 and a pKa (basic group) of 4.94.
Regarding `OCCCl`, the pKa (acidic group) worked out at 14.4.
On to `CCN(CC)CCNc1ccnc2ccccc12`, for which, for the setting “basic group”, the pKa turned out to be 8.95.
For the compound `Cc1cccc([Se]CC(=O)O)c1`, the pKa (acidic group) was 3.78.
`CN(C)c1ccc2ccccc2c1`: for the setting “basic group”, the pKa worked out at 4.57.
Regarding `CC1CC(=O)N(O)C1(C)C` (stereo not given), for the setting “acidic group”, the pKa turned out to be 8.85.
In turn, `Nc1ccc(Br)cc1Br` displayed a pKa (basic group) of 2.3.
For the setting “acidic group”, `Cc1cc(C(=O)O)cs1` showed a pKa of 4.24.
Same read-out and setting: as for `CSC(=S)N(C)CC(=O)O`, the figure is 2.98; as for `Cn1nnc(CC(=O)O)n1`, 3.44.
Turning to `CN(C)CCCCCCCCNC(=O)/C=N/[O-]`, where the note is “basic group”, the pKa was 10.5.
The compound `COP(=O)([O-])NS(=O)(=O)c1ccccc1` returned a pKa (acidic group) of 6.25.
Where the note is “basic group”, `C/C(=N\c1ccccc1)Nc1ccccc1` registered a pKa of 8.3.
Consider `CCOC(=O)N1CCc2noc(O)c2CC1`, for which the pKa (acidic group) was determined as 4.7.
For `NC(=O)C(CC(=O)O)c1ccccc1` (stereo not given), the pKa (acidic group) is 4.23.
`COc1cccc(CN2CC(O[Si](C)(C)C)C2)c1` yielded a pKa (basic group) of 7.81.
Same read-out and setting: as for `NCCC[NH2+]CCCC[NH3+]`, the figure is 8.35; as for `c1cnc2c(c1)ccc1cccnc12`, 4.96; as for `[NH3+]Cc1ccncc1`, 4.05.
`c1coc(CNCC[NH2+]Cc2ccco2)c1`: the pKa (basic group) came to 5.74.
On the same count and under the same terms, then `CN(C)C(C)(C)C`, with 10.5; and `CCOCCNc1cccc(OC)c1`, with 3.67.
In turn, `CN(C)Cc1ccc(NC(=O)/C=N/[O-])cc1` gave a pKa (basic group) of 9.56.
Still for that read-out and setting: as for `CN(C)c1ccc2cc3ccc([NH+](C)C)cc3[nH+]c2c1`, the figure is -3.15.
Compound `O=S(=O)(Nc1ccc(Cl)cc1)c1ccccc1` had a pKa (acidic group) of 7.91.
Compound `CC1[C@H](N)[C@H]1[NH3+]` (stereo not given in full) showed a pKa (basic group) of 5.9.
`CCC[Se](=O)O` yielded a pKa (acidic group) of 5.25.
The compound `CCCCCCCCCCCC(=O)O` returned a pKa (acidic group) of 4.89.
Regarding `CC(C)CN(C)c1ccccc1`, for the setting “basic group”, the pKa was 5.2.
In turn, `C/C(=C\c1ccccc1)CC(=O)O` gave a pKa (acidic group) of 5.35.
For the compound `O=S(=O)([N-]c1ncccn1)c1ccc(O)cc1`, for the setting “acidic group”, the pKa stood at 9.
For the compound `CCn1nc(-c2ccccc2)sc1=N`, under “basic group”, the pKa amounted to 6.1.
Still for that read-out and setting: as for `COc1ccc(Nc2ccc(N)cc2)cc1`, the figure is 5.9.
Compound `C=CC(=O)NC(C)(C)CCN(CC)CC` yielded a pKa (basic group) of 10.1.
Where the note is “acidic group”, `CCCCCC(=O)NO` displayed a pKa of 9.58.
Consider `CCC1CSC(C(C)C)=N1` (stereo not given), for which the pKa (basic group) worked out at 5.28.
For `Cc1ccc(C(O)CN)cc1` (stereo not given), the pKa (basic group) worked out at 9.06.
`CCN(CC)CCOCC[NH+](CC)CC` showed a pKa (basic group) of 8.61.
For `O=C(O)C(c1ccc(-c2ccccc2)cc1)C(O)Cc1ccccc1` (stereo not given), the pKa (acidic group) came out at 4.29.
For the compound `CC(c1ccc([N+](=O)[O-])cc1)[N+](=O)[O-]` (stereo not given), the pKa (acidic group) is 6.51.
Turning to `O=C1C[C@H]2OCC=C3CN4CC[C@@]56c7ccccc7N1[C@@H]5[C@@H]2[C@@H]3C[C@@H]46`, the pKa (basic group) stood at 8.18.
`CC(C)(C)Nc1ccccc1` showed a pKa (basic group) of 7.15.
Compound `CCCC(=O)OCCN(C)C` had a pKa (basic group) of 8.31.
In the case of `C=CC(=O)O`, under “acidic group”, the pKa is 4.25.
Still for that read-out and setting: then `C[C@H](C1CC1C(=O)O)[C@H]1CC[C@H]2[C@@H]3[C@@H](O)C[C@@H]4C[C@H](O)CC[C@]4(C)[C@H]3CC[C@]12C` (stereo not given in full), with 5.01; and `CCCCNC(=O)NS(=O)(=O)c1ccc(C)cc1`, with 5.3; and `CC(C)(C)CC#CC(=O)O`, with 2.54.
Under “basic group”, `CN(C)CC#N` had a pKa of 4.5.
As to `Oc1ccccc1F`, the pKa (acidic group) came out at 8.81.
`CC(C)CCOc1ccccc1/C=C/C(=O)O` registered a pKa (acidic group) of 4.85.
For the compound `Oc1ccc2nnccc2c1`, the pKa (acidic group) is 7.52 and the pKa (basic group) stood at 3.65.
On to `C=CCC(C)(O)CN(CC)CC` (stereo not given), for which the pKa (basic group) was found to be 9.71.
With `CCN(CC)C(=S)NC(=O)c1ccc(C)cc1`, where the note is “acidic group”, the pKa is 8.77.
As to `CNC(C)C(=O)[O-]` (stereo not given), for the setting “basic group”, the pKa came to 10.2.
Turning to `CC[NH+](CC)Cc1cccc(C)c1O`, for the setting “acidic group”, the pKa is 10.
As to `Cn1cnc2c(N)nc[nH+]c21`, the pKa (basic group) is -0.59.
Compound `NC(=[NH2+])Nc1nccc(-c2csc(N)n2)n1` yielded a pKa (basic group) of 2.7.
Consider `CSc1ncnc2[nH]ncc12`, for which the pKa by setting is: (acidic group) 9.65; (basic group) 1.
Take `CC(C)(N)CN`: the pKa (basic group) came to 10.
As to `Cc1nccc2c1[nH]c1ccc([N+](=O)[O-])cc12`, the pKa (basic group) came to 6.24.
The same measure, in the same setting: as for `NCCc1ccc(Br)cc1`, the figure is 9.65.
For the compound `CCN(c1ccccc1)C(C)(C)C`, where the note is “basic group”, the pKa turned out to be 8.02.
`CCCCCCCCCCCCN(CC(C)O)CC(O)CC` (stereo not given) registered a pKa (basic group) of 6.2.
